Reference: US20060193853A1, “Combinations of growth-and hormone-regulating factors for the treatment of neoplasia” (priority 2002, published 2006)

System: tumor cell line Dunning R3327-G
Assay: Tumor reduction in Copenhagen rats implanted with tumor cell line Dunning R3327-G (tumor weight at sacrifice)
Format: in vivo
Details: three months following the tumor line implant
Experimental: Tumor cell line Dunning R3327-G was implanted into 9-12 weeks old Copenhagen rats (with approximately 100 g of body weight each), which were subjected to different treatments with 2×10^6 cell density per animal in implant medium (RPMI 1640, serum-free in 0.5 ml), on the laxed area of the flanks. One hundred percent attachment efficiency was accomplished in the animals after 90 days.
Eight groups of ten animals each one were formed for the experiment, with Copenhagen rats as described before. […]
DES treatment was made on and off, three times a week at a rate of 1 mg/kg/day, as long as the experiment lasted; and it started once the cells were inoculated. […] (1) The expected effect (Etheoretical) in the case of double combination formulations can be calculated in case either effect is not mutually excluding (Caridad W., Guerra Bustillo, Ernesto Menendez Acuna, Rolando Barrera Morena, Esteban Egana Morales. “Estadistica”, Editorial Pueblo y Educacion, 1989), according to: Etheoretical=ET1+ET2−(ET1*ET2). […]

CC/C(=C(/CC)c1ccc(O)cc1)c1ccc(O)cc1 [DES, dietilestilbestrol]
Treatment effect. Etreatment=1-(Ptreatment/Pplacebo) (relative to placebo mean tumor weight): 0.597 | Tumor weight (g) (Mean of ten animals) (tumor dried and weighed): 12.66 g
